Laboratory results as given in US8470812B2, “Substituted benzo-pyrimido-tetrazolo-diazepine compounds” (ArQule, Inc., priority 2009, dated 2013).
Counter-ions that a name gives are not always drawn.

Assays:
CaMK2α = CaMK2α (Homo sapiens, UniProt Q9UQM7); assay: CaMKII kinase activity, mobility shift assay (MSA); format: biochemical; details: 10 μM compound; ATP 50, GS peptide 1 uM; read-out: CaMK2α inh. @ 10 μM (%)
Procedure: (§1) CAMKII and CDK7 activity was assayed using a mobility shift assay (MSA). Test inhibitors and controls (staurosporine) were prepared at 4× the desired final concentration. Test compound (5.0 μL), 4× substrate/ATP/metal solution (5.0 μL), and 2× kinase (10 μL) were added to each well of a reaction plate and incubated for 1 hr at room temperature. The assay components were diluted in assay buffer (20 mM HEPES pH 7.5, 0.01% Triton X-100, 2 mM DTT). To terminate the reaction, 60 μL of termination buffer (QuickScout Screening Assist MSA, Carna Biosciences) was added to each well. The reaction mixture was applied to the LabChip3000 system (Caliper Life Sciences) and the product and substrate peptide peaks were separated and quantified.

CaMK2β = CaMK2β (Homo sapiens, UniProt Q13554); assay: CaMKII kinase activity, mobility shift assay (MSA); format: biochemical; details: 10 μM compound; ATP 25, GS peptide 1 uM; read-out: CaMK2β inh. @ 10 μM (%)
Procedure: as §1

CaMK2γ = CaMK2γ (Homo sapiens, UniProt Q13555); assay: CaMKII kinase activity, mobility shift assay (MSA); format: biochemical; details: 10 μM compound; ATP 25, GS peptide 1 uM; read-out: CaMK2γ inh. @ 10 μM (%)
Procedure: as §1

CaMK2δ = CaMK2δ (Homo sapiens, UniProt Q13557); assay: CaMKII kinase activity, mobility shift assay (MSA); format: biochemical; details: 10 μM compound; ATP 5, GS peptide 1 uM; read-out: CaMK2δ inh. @ 10 μM (%)
Procedure: as §1

CDK7 = CDK7 (Homo sapiens, UniProt P50613); assay: CDK7 kinase activity, mobility shift assay (MSA); format: biochemical; details: 10 μM compound; ATP 50, CTD3 peptide 1 uM; read-out: CDK7 inh. @ 10 μM (%)
Chain of CDK7 (P50613 whole entry, species assumed): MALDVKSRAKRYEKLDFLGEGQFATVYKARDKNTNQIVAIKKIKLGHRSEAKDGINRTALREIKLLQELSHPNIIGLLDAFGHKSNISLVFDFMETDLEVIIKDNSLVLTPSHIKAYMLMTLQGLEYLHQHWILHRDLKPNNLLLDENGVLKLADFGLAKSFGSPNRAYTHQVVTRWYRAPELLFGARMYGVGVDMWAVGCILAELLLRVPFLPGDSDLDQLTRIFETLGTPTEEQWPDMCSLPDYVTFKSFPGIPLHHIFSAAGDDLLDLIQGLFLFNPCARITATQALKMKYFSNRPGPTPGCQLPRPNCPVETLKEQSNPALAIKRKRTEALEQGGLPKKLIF
Chain of CDK7 (P51946 whole entry partner, species assumed): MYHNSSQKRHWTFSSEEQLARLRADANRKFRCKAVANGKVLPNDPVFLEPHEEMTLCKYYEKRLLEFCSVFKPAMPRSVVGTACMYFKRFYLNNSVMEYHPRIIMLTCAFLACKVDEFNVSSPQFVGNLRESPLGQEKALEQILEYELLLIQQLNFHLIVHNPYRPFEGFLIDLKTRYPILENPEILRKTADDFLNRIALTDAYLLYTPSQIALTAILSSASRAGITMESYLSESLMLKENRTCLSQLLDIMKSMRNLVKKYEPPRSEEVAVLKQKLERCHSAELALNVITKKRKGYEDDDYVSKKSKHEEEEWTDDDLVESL
Chain of CDK7 (P51948 whole entry partner, species assumed): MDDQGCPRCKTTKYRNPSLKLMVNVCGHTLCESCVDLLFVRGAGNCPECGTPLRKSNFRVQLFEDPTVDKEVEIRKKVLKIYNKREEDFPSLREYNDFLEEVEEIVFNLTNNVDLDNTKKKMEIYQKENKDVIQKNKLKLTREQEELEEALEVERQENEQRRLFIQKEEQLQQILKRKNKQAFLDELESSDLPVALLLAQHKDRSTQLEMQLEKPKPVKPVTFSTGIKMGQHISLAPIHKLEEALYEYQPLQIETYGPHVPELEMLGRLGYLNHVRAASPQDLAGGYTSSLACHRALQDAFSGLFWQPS
Procedure: as §1

DLD-1 cancer cells = assay: MTS assay, cell growth inhibition; format: cell-based; details: DLD-1 cells, 72 h incubation; test concentration not given
Procedure: (§2) Cells were maintained at 37° C., 5% CO2 in DMEM media supplemented with 1% fetal bovine serum, penicillin/streptomycin and fungizone (Invitrogen). Cells were seeded into 96-well tissue culture plates at 3000 per well and cultured at 37° C. for 18 hours. Test compounds were dissolved and diluted to 300× in DMSO then diluted 1:40 in DMEM. Cells were incubated with test compounds for 72 hours followed by incubation with tetrazolium compound (3-(4,5-dimethylthiazol-2-yl)-5-(3-carboxymethoxyphenyl)-2-(4-sulfophenyl)-2H-tetrazolium, inner salt; MTS) and the electron coupling reagent, phenazine methosulfate (PMS) for 4 hours. […] The ability of compounds to inhibit cell growth in this assay is correlated with the reduction of dehydrogenase enzyme activity found in metabolically active cells. The measurement of the absorbance of the formazan was assessed using a Victor (Perkin Elmer) microplate reader at 492 nm. The calculated IC50 value is the concentration of the test compound that causes a 50% decrease in the absorbance. Selected compounds have been tested in DLD-1 and MDA-MB-231 cancer cells.

MDA-MB-231 cancer cells = assay: MTS assay, cell growth inhibition; format: cell-based; details: MDA-MB-231 cells, 72 h incubation; test concentration not given
Procedure: as §2

Row | SMILES | DLD-1, MTS, 72 h (% Inhibition) (DLD-1 cancer cells) [%] | MDA-MB-231, MTS, 72 h (% Inhibition) (MDA-MB-231 cancer cells) [%] | also measured
1 | Fc1ccc(CN2c3ccccc3-n3nnnc3-c3cnc(NCCN4CCOCC4)nc32)cc1F [Compound 18, 9-(3,4-difluorobenzyl)-N-(2-morpholin-4-ylethyl)-9H-pyrimido[5,4-c]tetrazolo[1,5-a][1,5]benzodiazepin-11-amine] |  |  | inhibition at 10 µM (CaMK2α): 42%; inhibition at 10 µM (CaMK2β): 23%; inhibition at 10 µM (CaMK2γ): 12%; inhibition at 10 µM (CaMK2δ): 32%; inhibition at 10 µM (CDK7): 84%
2 | Fc1ccc(CN2c3ccccc3-n3nnnc3-c3cnc(NCc4cccnc4)nc32)cc1F [Compound 16, 9-(3,4-difluorobenzyl)-N-(pyridin-3-ylmethyl)-9H-pyrimido[5,4-c]tetrazolo[1,5-a][1,5]benzodiazepin-11-amine] | 38 | 30 | inhibition at 10 µM (CaMK2α): 67%; inhibition at 10 µM (CaMK2β): 41%; inhibition at 10 µM (CaMK2γ): 11%; inhibition at 10 µM (CaMK2δ): 65%
3 | CC(C)(C)OC(=O)NC1CCCN(c2ncc3c(n2)N(Cc2ccc(F)c(F)c2)c2ccccc2-n2nnnc2-3)C1 (stereo not shown) [Compound 21, tert-butyl {1-[9-(3,4-difluorobenzyl)-9H-pyrimido[5,4-c]tetrazolo[1,5-a][1,5]benzodiazepin-11-yl]piperidin-3-yl}carbamate] | 97 | 97 | 
4 | c1ccc(CCNc2ncc3c(n2)Nc2ccccc2-n2nnnc2-3)nc1 [Compound 98, N-(2-pyridin-2-ylethyl)-9H-pyrimido[5,4-c]tetrazolo[1,5-a][1,5]benzodiazepin-11-amine] | 76 | 41 | 
5 | CN1CCN(c2ncc3c(n2)N(Cc2ccc(F)c(F)c2)c2ccccc2-n2nnnc2-3)CC1 [Compound 14, 9-(3,4-difluorobenzyl)-11-(4-methylpiperazin-1-yl)-9H-pyrimido[5,4-c]tetrazolo[1,5-a][1,5]benzodiazepine] | 49 | 58 | inhibition at 10 µM (CaMK2α): 96%; inhibition at 10 µM (CaMK2β): 88%; inhibition at 10 µM (CaMK2γ): 80%; inhibition at 10 µM (CaMK2δ): 96%
6 | c1ccc2c(c1)Nc1nc(NCCc3ccncc3)ncc1-c1nnnn1-2 [Compound 40, N-(2-pyridin-4-ylethyl)-9H-pyrimido[5,4-c]tetrazolo[1,5-a][1,5]benzodiazepin-11-amine] | 98 | 65 | 
7 | Clc1ccc(CNc2ncc3c(n2)Nc2ccccc2-n2nnnc2-3)cc1 [Compound 58, N-(4-chlorobenzyl)-9H-pyrimido[5,4-c]tetrazolo[1,5-a][1,5]benzodiazepin-11-amine] | 97 | 98 | 
8 | Fc1ccc(CN2c3ccccc3-n3nnnc3-c3cnc(NCc4ccncc4)nc32)cc1F [Compound 20, 9-(3,4-difluorobenzyl)-N-(pyridin-4-ylmethyl)-9H-pyrimido[5,4-c]tetrazolo[1,5-a][1,5]benzodiazepin-11-amine] | 102 | 102 | 
9 | CC(C)(C)OC(=O)N1CCN(c2ncc3c(n2)N(Cc2ccc(F)c(F)c2)c2ccccc2-n2nnnc2-3)CC1 [Compound 22, tert-butyl 4-[9-(3,4-difluorobenzyl)-9H-pyrimido[5,4-c]tetrazolo[1,5-a][1,5]benzodiazepin-11-yl]piperazine-1-carboxylate] | 95 | 93 | 
10 | COc1cc(CNc2ncc3c(n2)Nc2ccccc2-n2nnnc2-3)cc(OC)c1OC [Compound 72, N-(3,4,5-trimethoxybenzyl)-9H-pyrimido[5,4-c]tetrazolo[1,5-a][1,5]benzodiazepin-11-amine] | 97 | 78 | 
11 | CC(C)CC(C)Nc1ncc2c(n1)Nc1ccccc1-n1nnnc1-2 (stereo not shown) [Compound 63, N-(1,3-dimethylbutyl)-9H-pyrimido[5,4-c]tetrazolo[1,5-a][1,5]benzodiazepin-11-amine] | 90 | 32 | 
12 | CC(Nc1ncc2c(n1)Nc1ccccc1-n1nnnc1-2)c1ccc(F)cc1 (stereo not shown) [Compound 33, N-[1-(4-fluorophenyl)ethyl]-9H-pyrimido[5,4-c]tetrazolo[1,5-a][1,5]benzodiazepin-11-amine] | 82 | 42 | 
13 | CCCNc1ncc2c(n1)Nc1ccccc1-n1nnnc1-2 [Compound 41, N-propyl-9H-pyrimido[5,4-c]tetrazolo[1,5-a][1,5]benzodiazepin-11-amine] | 97 | 98 | 
14 | Fc1ccc(F)c(CNc2ncc3c(n2)Nc2ccccc2-n2nnnc2-3)c1 [Compound 59, N-(2,5-difluorobenzyl)-9H-pyrimido[5,4-c]tetrazolo[1,5-a][1,5]benzodiazepin-11-amine] | 97 | 71 | 
15 | CCCN(C)c1ncc2c(n1)Nc1ccccc1-n1nnnc1-2 [Compound 104, N-methyl-N-propyl-9H-pyrimido[5,4-c]tetrazolo[1,5-a][1,5]benzodiazepin-11-amine] | 97 | 99 | 
16 | CC(Nc1ncc2c(n1)Nc1ccccc1-n1nnnc1-2)c1ccc(Cl)cc1 (stereo not shown) [Compound 52, N-[1-(4-chlorophenyl)ethyl]-9H-pyrimido[5,4-c]tetrazolo[1,5-a][1,5]benzodiazepin-11-amine] | 97 | 98 | 
17 | CC(Nc1ncc2c(n1)Nc1ccccc1-n1nnnc1-2)c1ccccc1 (stereo not shown) [Compound 51, N-(1-phenylethyl)-9H-pyrimido[5,4-c]tetrazolo[1,5-a][1,5]benzodiazepin-11-amine] | 96 | 98 | 
18 | CN1CCN(c2ncc3c(n2)N(Cc2ccc(F)c(F)c2)c2ccccc2-n2nnnc2-3)CC1 (as salt: HCl) [Compound 14, 9-(3,4-difluorobenzyl)-11-(4-methylpiperazin-1-yl)-9H-pyrimido[5,4-c]tetrazolo[1,5-a][1,5]benzodiazepine] |  |  | melting point: 180 to 191 °C
19 | COc1cc(CNc2ncc3c(n2)Nc2ccccc2-n2nnnc2-3)cc(OC)c1 [Compound 24, N-(3,5-dimethoxybenzyl)-9H-pyrimido[5,4-c]tetrazolo[1,5-a][1,5]benzodiazepin-11-amine] | 95 | 33 | 
20 | CCC(C)CNc1ncc2c(n1)Nc1ccccc1-n1nnnc1-2 (stereo not shown) [Compound 95, N-(2-methylbutyl)-9H-pyrimido[5,4-c]tetrazolo[1,5-a][1,5]benzodiazepin-11-amine] | 97 | 99 | 
21 | COc1ccc(OC)c(CNc2ncc3c(n2)Nc2ccccc2-n2nnnc2-3)c1 [Compound 103, N-(2,5-dimethoxybenzyl)-9H-pyrimido[5,4-c]tetrazolo[1,5-a][1,5]benzodiazepin-11-amine] | 97 | 97 | 
